By IC50 is commonly meant the concentration needed to halve the response being measured. A low value points to higher potency.

Structures are written as SMILES.

Data on 10 molecules can be found in patent US8772275B2, “Mediators of hedgehog signaling pathways, compositions and uses related thereto” (Curis, Inc., priority 2001, dated 2014).

The subject of one experiment is Hedgehog pathway. As to the kind of experiment: Gli-Luc reporter assay in human embryonic palatal mesenchyme cells, OCT-SHH stimulated. It counts as cell-based. As to conditions: human-based Gli-Luc assay, OCT-SHH 1 μg/ml. How it is done: (§1) Compounds to be tested are dissolved in DMSO to a concentration of 10 mM, and stored at −20° C. To activate the Hedgehog pathway in the assay cells, an octylated (lipid-modified) form of the N-terminal fragment of the Sonic Hedgehog protein (OCT-SHH) is used. This N-terminal SHH fragment is produced bacterially. See, for example, Taylor F R, et al., Biochemistry 2001, 40, 4359-71.
(§2) Compounds may be tested in the “Gli-Luc” assay below, using the cell line 10T1/2(s12), wherein the cells contain a Hedgehog-responsive reporter construct utilizing Luciferase as the reporter gene. In this way, Hedgehog pathway signaling activity can be measured via the Gli-Luc response.
(§3) 10t1/2(s12) cells are plated in a 96-well micro-titer plate (MTP) at 20,000 cells/well in full medium [DMEM with […]]. Then plates are placed in the incubator for incubation overnight (O/N), at 37° C. and 5% CO2. After 24 h, the medium is replaced with Luciferase-assay medium (DMEM with 0.5% FBS). Compounds are thawed and diluted in assay medium at 3:1000 (about 300-fold) resulting in a starting concentration of about 0.0003 μM to 30 μM.
(§4) Subsequently, 150 μl each sample is added to the first wells (in triplicate). The MTP samples are then diluted at 3-fold dilutions to a total of seven wells, ultimately resulting in a regiment of seven dilutions in triplicate, for each compound. Next, the protein ligand OCT-SHH is diluted in Luciferase-assay medium and added to each well at a final concentration of […] Plates are then returned to the incubator for further incubation O/N, at 37° C. and 5% CO2. After about 24 h, plates are removed from the incubator and the medium is aspirated/discarded. Wells are washed once with assay buffer [PBS+1 mM Mg^2+ and 1 mM Ca^2+]. Then 50 μl of assay buffer is added to each well. The Luciferase assay reagent is prepared as described by the vendor (LucLite kit from Packard), and 50 μl is added to each well. Plates are incubated at room temperature (RT) for about 30 minutes after which the signals are read, again at RT, on a Topcount (Packard).
Similar assays were performed using human cell lines (specifically, human embryonic palatal mesenchyme cells, modified with the Gli-Luc construct as described above) in a growth medium of MEM/Sodium Pyruvate w/10% MS, and an assay medium of MEM/Sodium Pyruvate w/0.5% FBS. OCT-SHH was added to reach a final concentration of 1 μg/ml.
With `Cc1ccc2nc(-c3cc(NC(=O)c4ccc5c(c4)OCCO5)ccc3Cl)[nH]c2c1C` [X], the IC50 was < 50 nM.

For the molecule `O=C(Nc1ccc(Cl)c(-c2nc3ccccc3[nH]2)c1)c1cccnc1` [B], the IC50 is < 50 nM.

Consider `COc1cc(OC)cc(C(=O)Nc2ccc(Cl)c(-c3nc4c(C)cccc4[nH]3)c2)c1` [Z], for which the concentration for half-maximal inhibition (IC50) is < 50 nM.

Turning to `COc1cc(OC)cc(C(=O)Nc2ccc(Cl)c(-c3nc4ccccc4[nH]3)c2)c1` [Compound A], the half-maximal inhibitory concentration (IC50) is < 50 nM.

For `O=C(Nc1ccc(Cl)c(-c2nc3cc(C(F)(F)F)ccc3[nH]2)c1)c1ccc2c(c1)OCCO2` [W], the IC50 is < 10 nM.

`COc1ccc(C(=O)Nc2ccc(Cl)c(-c3nc4cc(C)c(C)cc4[nH]3)c2)cc1Cl` [Y]: the IC50 is < 50 nM.

`O=C(Nc1ccc(Cl)c(-c2nc3ccccc3[nH]2)c1)c1ccc2c(c1)OCCO2` [C]: the half-maximal inhibitory concentration (IC50) was < 500 nM.

The subject of the next experiment is Hedgehog pathway. Nature of the experiment: Gli-Luc reporter assay in 10T1/2(s12) cells, OCT-SHH stimulated. The format is cell-based. The following applies: compounds E-V: not from the human-based assay; Gli-Luc assay in 10T1/2(s12) cells. How it is done: as §1, §2, §3, §4
For orientation: A reporter such as luciferase makes a cellular process visible.
For the molecule `Cc1ccc(C(=O)Nc2ccc(Cl)c(-c3nc4ccccc4[nH]3)c2)cc1[N+](=O)[O-]` [J], the IC50 is < 5000 nM.

As for `Cc1ccccc1OCC(=O)Nc1ccc(Cl)c(-c2nc3ccccc3[nH]2)c1` [E], the 50% inhibitory concentration (IC50) is < 5000 nM.

As to `COc1cc(C(=O)Nc2ccc(Cl)c(-c3nc4ccccc4[nH]3)c2)cc(OC)c1OC` [L], the half-inhibitory concentration (IC50) is < 5000 nM.

A further experiment relates to hedgehog signaling pathway. Nature of the experiment: Colon cancer cells co-cultured with 10T(S12) reporter cells, luciferase activity. It counts as cell-based. As to conditions: 20,000 colon cancer cells mixed with 10,000 10T(S12) cells, 72 hrs incubation. How it is done: 20,000 colon cancer cells were mixed with 10,000 10T(S12) cells (described above), and the mixture was added to each well in a 96-well plate. A subject compound or control vehicle was added to the culture on the next day. After 72 hrs of incubation, the cells were lysed for measuring the luciferase activity. […] FIG. 35 depicts the comparative inhibition of hedgehog-induced activation in S12 cells for the antibodies 1E6 and 5E1 and compound A, and the comparative inhibition of endogenous hedgehog activity in colon cancer cells for these compositions.
Take `COc1cc(OC)cc(C(=O)Nc2ccc(Cl)c(-c3nc4ccccc4[nH]3)c2)c1` [Compound A]: the “inhibition of luciferase activity compared to vehicle” value is listed as “able to inhibit the lucferase activity”.
